# From patent publication US11793849B2, “Method of Chinese herbal medicine extract used for treating multiple diseases caused by drug resistant bacteria infection” (priority 2016, dated 2023)
# Read-outs that look alike come from different tables or passages of the source.
# How the values were obtained:
# MDRAB = assay: MIC determination, microdilution broth method; format: cell-based, Acinetobacter baumannii
# Protocol: Determination methods of a Minimal Inhibitory Concentration (MIC) and a Minimum Bactericidal Concentration (MBC) of a test product: the MIC and the MBC of the Pithecellobium clypearia Benth water or ethanol extract to the MDRAB are determined by a microdilution broth method. And it is operated by referring to the microdilution broth method recommended by National Committee for Clinical Laboratory Standards (NCCLS).
# ATCC27853 = assay: MIC determination, control strain; format: cell-based
# Protocol: Determination methods of a Minimal Inhibitory Concentration (MIC) and a Minimum Bactericidal Concentration (MBC) of a test product: the MIC and the MBC of the Pithecellobium clypearia Benth water or ethanol extract to the MDRAB are determined by a microdilution broth method.
# MDRPA = assay: Checkerboard assay (combined-use MIC, FIC); format: cell-based, Pseudomonas aeruginosa; details: for FIC, all strains / MIC50 of the antibiotic after combined use / MIC90 of the antibiotic after combined use / reduction of the antibiotic's MIC50 vs single use / reduction of the antibiotic's MIC90 vs single use / share of strains with FIC ≤ 0.5: 20 MDRPAs
# Summary of the method: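 Checkerboard combinations of S20b and antibiotic run per NCCLS method against ESBL E. coli, MDR A. baumannii and MDR P. aeruginosa.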
# [1] = single use, 20 MDRABs, EA=10% ethanol extract
# [2] = single use, 20 MDRABs, EA=water extract
# [3] = single use, 20 MDRABs, section of the 95% ethanol extract
# [4] = antibiotic with 10% ethanol extract
# [5] = antibiotic with 60% ethanol extract
# [6] = antibiotic with 95% ethanol extract
# [7] = antibiotic with EA (water extract)
structure (smiles),measurement,setting,value
"CC(C)(O/N=C(\C(=O)N[C@@H]1C(=O)N2C(C(=O)[O-])=C(C[n+]3ccccc3)CS[C@H]12)c1csc(N)n1)C(=O)O [CAZ, Ceftazidime]",MIC,"MDRAB; Acinetobacter baumannii, strain A1, EA=P. clypearia 95% ethanol extract, read-out: single-use MIC",128 µg/mL
same,MIC,"MDRAB; Acinetobacter baumannii, strain A2, EA=P. clypearia 95% ethanol extract, read-out: single-use MIC",512 µg/mL
same,MIC,"MDRAB; Acinetobacter baumannii, strain A3, EA=P. clypearia 95% ethanol extract, read-out: single-use MIC",512 µg/mL
same,MIC,"MDRAB; Acinetobacter baumannii, strain A4, EA=P. clypearia 95% ethanol extract, read-out: single-use MIC",256 µg/mL
same,MIC,"MDRAB; Acinetobacter baumannii, strain A5, EA=60% ethanol extract, read-out: MIC",64 µg/mL
same,MIC,"MDRAB; Acinetobacter baumannii, strain A5, EA=95% ethanol extract, read-out: MIC",64 µg/mL
same,MIC,"MDRAB; Acinetobacter baumannii, strain A5, EA=P. clypearia 95% ethanol extract, read-out: single-use MIC",64 µg/mL
same,MIC,"MDRAB; Acinetobacter baumannii, strain A5, single use, EA=10% ethanol extract, read-out: MIC",64 µg/mL
same,MIC,"MDRAB; Acinetobacter baumannii, strain A5, single use, EA=water extract, read-out: MIC",64 µg/mL
same,MIC,"MDRAB; Acinetobacter baumannii, strain A6, EA=60% ethanol extract, read-out: MIC",> 512 µg/mL
same,MIC,"MDRAB; Acinetobacter baumannii, strain A6, EA=95% ethanol extract, read-out: MIC",> 512 µg/mL
same,MIC,"MDRAB; Acinetobacter baumannii, strain A6, EA=P. clypearia 95% ethanol extract, read-out: single-use MIC",1020 µg/mL
same,MIC,"MDRAB; Acinetobacter baumannii, strain A6, single use, EA=10% ethanol extract, read-out: MIC",> 512 µg/mL
same,MIC,"MDRAB; Acinetobacter baumannii, strain A6, single use, EA=water extract, read-out: MIC",> 512 µg/mL
same,MIC,"MDRAB; Acinetobacter baumannii, strain A7, EA=60% ethanol extract, read-out: MIC",> 512 µg/mL
same,MIC,"MDRAB; Acinetobacter baumannii, strain A7, EA=95% ethanol extract, read-out: MIC",> 512 µg/mL
same,MIC,"MDRAB; Acinetobacter baumannii, strain A7, EA=P. clypearia 95% ethanol extract, read-out: single-use MIC",1020 µg/mL
same,MIC,"MDRAB; Acinetobacter baumannii, strain A7, single use, EA=10% ethanol extract, read-out: MIC",> 512 µg/mL
same,MIC,"MDRAB; Acinetobacter baumannii, strain A7, single use, EA=water extract, read-out: MIC",> 512 µg/mL
same,MIC,"MDRAB; Acinetobacter baumannii, strain A8, EA=P. clypearia 95% ethanol extract, read-out: single-use MIC",512 µg/mL
same,MIC,"MDRAB; Acinetobacter baumannii, strain A9, EA=P. clypearia 95% ethanol extract, read-out: single-use MIC",512 µg/mL
same,MIC,"MDRAB; Acinetobacter baumannii, strain A10, EA=P. clypearia 95% ethanol extract, read-out: single-use MIC",512 µg/mL
same,MIC,"MDRAB; Acinetobacter baumannii, strain A11, EA=P. clypearia 95% ethanol extract, read-out: single-use MIC",512 µg/mL
same,MIC,"MDRAB; Acinetobacter baumannii, strain A12, EA=P. clypearia 95% ethanol extract, read-out: single-use MIC",512 µg/mL
same,MIC,"MDRAB; Acinetobacter baumannii, strain A13, EA=P. clypearia 95% ethanol extract, read-out: single-use MIC",256 µg/mL
same,MIC,"MDRAB; Acinetobacter baumannii, strain A14, EA=P. clypearia 95% ethanol extract, read-out: single-use MIC",512 µg/mL
same,MIC,"MDRAB; Acinetobacter baumannii, strain A15, EA=P. clypearia 95% ethanol extract, read-out: single-use MIC",256 µg/mL
same,MIC,"MDRAB; Acinetobacter baumannii, strain A16, EA=P. clypearia 95% ethanol extract, read-out: single-use MIC",512 µg/mL
same,MIC,"MDRAB; Acinetobacter baumannii, strain A17, EA=P. clypearia 95% ethanol extract, read-out: single-use MIC",256 µg/mL
same,MIC,"MDRAB; Acinetobacter baumannii, strain A18, EA=P. clypearia 95% ethanol extract, read-out: single-use MIC",512 µg/mL
same,MIC,"MDRAB; Acinetobacter baumannii, strain A19, EA=P. clypearia 95% ethanol extract, read-out: single-use MIC",256 µg/mL
same,MIC,"MDRAB; Acinetobacter baumannii, strain A20, EA=P. clypearia 95% ethanol extract, read-out: single-use MIC",512 µg/mL
same,MIC50,"MDRAB; Acinetobacter baumannii, single use, 20 MDRABs, section of the 60% ethanol extract, read-out: MIC50",512 µg/mL
same,MIC90,"MDRAB; Acinetobacter baumannii, single use, 20 MDRABs, section of the 60% ethanol extract, read-out: MIC90",512 µg/mL
same,MIC50,"MDRAB; MDRABs, EA=60% ethanol extract",512 µg/mL
same,MIC90,"MDRAB; MDRABs, EA=60% ethanol extract",512 µg/mL
same,MIC Range,"MDRAB; MDRABs, EA=60% ethanol extract",64 to 512 µg/mL
same,MIC50,"MDRAB; MDRABs, EA=95% ethanol extract",512 µg/mL
same,MIC90,"MDRAB; MDRABs, EA=95% ethanol extract",512 µg/mL
same,MIC Range,"MDRAB; MDRABs, EA=95% ethanol extract",64 to 512 µg/mL
same,MIC50,MDRAB; [1],512 µg/mL
same,MIC90,MDRAB; [1],512 µg/mL
same,MIC Range,MDRAB; [1],64 to 512 µg/mL
same,MIC50,MDRAB; [2],512 µg/mL
same,MIC90,MDRAB; [2],512 µg/mL
same,MIC Range,MDRAB; [2],64 to 512 µg/mL
same,MIC50,MDRAB; [3],512 µg/mL
same,MIC90,MDRAB; [3],512 µg/mL
same,MIC,"MDRAB; strain A6, single use, EA=10% ethanol extract",1024 µg/mL
same,MIC,"MDRAB; strain A6, single use, EA=water extract",1024 µg/mL
same,MIC,"MDRAB; strain A7, single use, EA=10% ethanol extract",1024 µg/mL
same,MIC,"MDRAB; strain A7, single use, EA=water extract",1024 µg/mL
same,MIC,"ATCC27853; EA=10% ethanol extract, read-out: MIC",4 µg/mL
same,MIC,"ATCC27853; EA=60% ethanol extract, read-out: MIC",4 µg/mL
same,MIC,"ATCC27853; EA=95% ethanol extract, read-out: MIC",4 µg/mL
same,MIC,"ATCC27853; EA=P. clypearia 10% ethanol extract, read-out: MIC (single use)",4 µg/mL
same,MIC,"ATCC27853; EA=P. clypearia water extract, read-out: MIC (single use)",4 µg/mL
same,MIC,"ATCC27853; EA=water extract, read-out: MIC",4 µg/mL
same,MIC,"ATCC27853; single use, EA = 60% ethanol extract, read-out: MIC",4 µg/mL
same,MIC,"ATCC27853; single use, EA = 95% ethanol extract, read-out: MIC",4 µg/mL
same,"FIC, all strains",MDRPA; [4],≤ 2
same,MIC50 of the antibiotic after combined use,MDRPA; [4],16 µg/mL
same,MIC90 of the antibiotic after combined use,MDRPA; [4],64 µg/mL
same,reduction of the antibiotic's MIC50 vs single use,MDRPA; [4],50%
same,reduction of the antibiotic's MIC90 vs single use,MDRPA; [4],75%
same,share of strains with FIC ≤ 0.5,MDRPA; [4],35%
same,"FIC, all strains",MDRPA; [5],≤ 2
same,MIC50 of the antibiotic after combined use,MDRPA; [5],8 µg/mL
same,MIC90 of the antibiotic after combined use,MDRPA; [5],64 µg/mL
same,reduction of the antibiotic's MIC50 vs single use,MDRPA; [5],75%
same,reduction of the antibiotic's MIC90 vs single use,MDRPA; [5],75%
same,share of strains with FIC ≤ 0.5,MDRPA; [5],40%
same,"FIC, all strains",MDRPA; [6],≤ 2
same,MIC50 of the antibiotic after combined use,MDRPA; [6],16 µg/mL
same,MIC90 of the antibiotic after combined use,MDRPA; [6],128 µg/mL
same,reduction of the antibiotic's MIC50 vs single use,MDRPA; [6],50%
same,reduction of the antibiotic's MIC90 vs single use,MDRPA; [6],50%
same,share of strains with FIC ≤ 0.5,MDRPA; [6],25%
same,"FIC, all strains",MDRPA; [7],≤ 2
same,MIC50 of the antibiotic after combined use,MDRPA; [7],8 µg/mL
same,MIC90 of the antibiotic after combined use,MDRPA; [7],64 µg/mL
same,reduction of the antibiotic's MIC50 vs single use,MDRPA; [7],75%
same,reduction of the antibiotic's MIC90 vs single use,MDRPA; [7],75%
same,share of strains with FIC ≤ 0.5,MDRPA; [7],45%
same,combined-use MIC,"MDRPA; strain P1, EA (P. clypearia 10% ethanol extract) combined with CAZ",16 µg/mL
same,combined-use MIC,"MDRPA; strain P1, EA (P. clypearia water extract) combined with CAZ",8 µg/mL
same,combined-use MIC,"MDRPA; strain P2, EA (P. clypearia 10% ethanol extract) combined with CAZ",16 µg/mL
same,combined-use MIC,"MDRPA; strain P2, EA (P. clypearia water extract) combined with CAZ",16 µg/mL
same,combined-use MIC,"MDRPA; strain P3, EA (P. clypearia 10% ethanol extract) combined with CAZ",2 µg/mL
same,combined-use MIC,"MDRPA; strain P3, EA (P. clypearia water extract) combined with CAZ",2 µg/mL
same,combined-use MIC,"MDRPA; strain P4, EA (P. clypearia 10% ethanol extract) combined with CAZ",64 µg/mL
same,combined-use MIC,"MDRPA; strain P4, EA (P. clypearia water extract) combined with CAZ",64 µg/mL
same,combined-use MIC,"MDRPA; strain P5, EA (P. clypearia 10% ethanol extract) combined with CAZ",32 µg/mL
same,combined-use MIC,"MDRPA; strain P5, EA (P. clypearia water extract) combined with CAZ",32 µg/mL
same,combined-use MIC,"MDRPA; strain P6, EA (P. clypearia 10% ethanol extract) combined with CAZ",256 µg/mL
same,combined-use MIC,"MDRPA; strain P6, EA (P. clypearia water extract) combined with CAZ",256 µg/mL
same,combined-use MIC,"MDRPA; strain P7, EA (P. clypearia 10% ethanol extract) combined with CAZ",32 µg/mL
same,combined-use MIC,"MDRPA; strain P7, EA (P. clypearia water extract) combined with CAZ",32 µg/mL
same,combined-use MIC,"MDRPA; strain P8, EA (P. clypearia 10% ethanol extract) combined with CAZ",64 µg/mL
same,combined-use MIC,"MDRPA; strain P8, EA (P. clypearia water extract) combined with CAZ",64 µg/mL
same,combined-use MIC,"MDRPA; strain P9, EA (P. clypearia 10% ethanol extract) combined with CAZ",4 µg/mL
same,combined-use MIC,"MDRPA; strain P9, EA (P. clypearia water extract) combined with CAZ",4 µg/mL
same,combined-use MIC,"MDRPA; strain P10, EA (P. clypearia 10% ethanol extract) combined with CAZ",2 µg/mL
same,combined-use MIC,"MDRPA; strain P10, EA (P. clypearia water extract) combined with CAZ",2 µg/mL
same,combined-use MIC,"MDRPA; strain P11, EA (P. clypearia 10% ethanol extract) combined with CAZ",1 µg/mL
same,combined-use MIC,"MDRPA; strain P11, EA (P. clypearia water extract) combined with CAZ",1 µg/mL
same,combined-use MIC,"MDRPA; strain P12, EA (P. clypearia 10% ethanol extract) combined with CAZ",2 µg/mL
same,combined-use MIC,"MDRPA; strain P12, EA (P. clypearia water extract) combined with CAZ",2 µg/mL
same,combined-use MIC,"MDRPA; strain P13, EA (P. clypearia 10% ethanol extract) combined with CAZ",4 µg/mL
same,combined-use MIC,"MDRPA; strain P13, EA (P. clypearia water extract) combined with CAZ",4 µg/mL
same,combined-use MIC,"MDRPA; strain P14, EA (P. clypearia 10% ethanol extract) combined with CAZ",8 µg/mL
same,combined-use MIC,"MDRPA; strain P14, EA (P. clypearia water extract) combined with CAZ",8 µg/mL
same,combined-use MIC,"MDRPA; strain P15, EA (P. clypearia 10% ethanol extract) combined with CAZ",128 µg/mL
same,combined-use MIC,"MDRPA; strain P15, EA (P. clypearia water extract) combined with CAZ",128 µg/mL
same,combined-use MIC,"MDRPA; strain P16, EA (P. clypearia 10% ethanol extract) combined with CAZ",8 µg/mL
same,combined-use MIC,"MDRPA; strain P16, EA (P. clypearia water extract) combined with CAZ",8 µg/mL
same,combined-use MIC,"MDRPA; strain P17, EA (P. clypearia 10% ethanol extract) combined with CAZ",8 µg/mL
same,combined-use MIC,"MDRPA; strain P17, EA (P. clypearia water extract) combined with CAZ",8 µg/mL
same,combined-use MIC,"MDRPA; strain P18, EA (P. clypearia 10% ethanol extract) combined with CAZ",32 µg/mL
same,combined-use MIC,"MDRPA; strain P18, EA (P. clypearia water extract) combined with CAZ",16 µg/mL
same,combined-use MIC,"MDRPA; strain P19, EA (P. clypearia 10% ethanol extract) combined with CAZ",2 µg/mL
same,combined-use MIC,"MDRPA; strain P19, EA (P. clypearia water extract) combined with CAZ",2 µg/mL
same,combined-use MIC,"MDRPA; strain P20, EA (P. clypearia 10% ethanol extract) combined with CAZ",64 µg/mL
same,combined-use MIC,"MDRPA; strain P20, EA (P. clypearia water extract) combined with CAZ",64 µg/mL
